Results published in the NIST ThermoML archive (doi:10.1016/j.jct.2013.04.021).
± gives the expanded uncertainty stated by the source.

Conditions: 298.15 K, 101.33 kPa, Liquid; for viscosity: Capillary tube (Ostwald / Ubbelohde) method; for speed of sound: Sing-around technique in a fixed-path interferometer; for mass density: Vibrating tube method

| viscosity [mPa·s] | speed of sound [m/s] | mass density [kg/m3] | Structure (SMILES) |
| --- | --- | --- | --- |
| 11.81 ± 0.28 | 1379.4 ± 1.6 | 826.489 ± 0.24 | CCCCCCCCCCO [decan-1-ol] |
| 4.623 ± 0.1 | 1303.5 ± 1.6 | 815.652 ± 0.24 | CCCCCCO [hexan-1-ol] |
| 7.68 ± 0.17 | 1347.3 ± 1.6 | 821.877 ± 0.24 | CCCCCCCCO [octan-1-ol] |

| Structure (SMILES) | viscosity [mPa·s] | speed of sound [m/s] | mass density [kg/m3] |
| --- | --- | --- | --- |
| CCCCOCCO [2-butoxyethan-1-ol] | 2.885 ± 0.063 | 1306 ± 1.6 | 896.312 ± 0.24 |
